# Patent publication US9867833B2, “Serine/threonine kinase inhibitors” (GENENTECH, INC., priority 2013, dated 2018)
# Molecular target: human ERK-2 (Mitogen Activated Kinase 1) (Homo sapiens (Human), UniProt P28482)
# Assay: ERK-2 Enzymatic Assay
# Assay type: biochemical
# Details: human ERK-2 enzyme 5 nM, 25 μM ATP, S/T17 peptide substrate; isomer = configuration of CR2R3
# Summary of the method: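 Recombinant human ERK-2 (aa 8-360, N-terminal 6-His, E. coli) with 3-fold serially diluted compound. Per-well rates from linear fits converted to percent of control; IC50 by four-parameter fit.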
# Sequence of human ERK-2 (Mitogen Activated Kinase 1) (P28482 8-360): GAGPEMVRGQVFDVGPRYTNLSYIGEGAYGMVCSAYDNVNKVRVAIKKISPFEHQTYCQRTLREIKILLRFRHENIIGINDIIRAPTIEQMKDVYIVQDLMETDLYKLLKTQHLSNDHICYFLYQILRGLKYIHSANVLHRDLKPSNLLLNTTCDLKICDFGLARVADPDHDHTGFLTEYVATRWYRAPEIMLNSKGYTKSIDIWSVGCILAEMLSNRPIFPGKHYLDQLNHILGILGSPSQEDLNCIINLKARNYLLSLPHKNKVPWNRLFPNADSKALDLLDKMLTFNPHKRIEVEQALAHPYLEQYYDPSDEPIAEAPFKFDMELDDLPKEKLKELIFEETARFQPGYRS
row,IC50 [pM],SMILES
1,18200,"Cc1cc(C[C@@H]2CCOc3cc(-c4ccnc(Nc5ccnn5C)n4)cc4nnc2n34)on1 [(S) I-93, N-(1-methyl-1H-pyrazol-5-yl)-4-(9-((3-methylisoxazol-5-yl)methyl)-8,9-dihydro-7H-6-oxa-1,2,2a^1-triazabenzo[cd]azulen-4-yl)pyrimidin-2-amine]"
2,794,"COc1cccc(C[C@@H]2COc3cc(-c4ccnc(Nc5ccnn5C)c4)cc4nnc2n34)c1 [(S) I-97, 4-(3-(3-methoxybenzyl)-3,4-dihydro-5-oxa-1,2,2a^1-triazaacenaphthylen-7-yl)-N-(1-methyl-1H-pyrazol-5-yl)pyridin-2-amine]"
3,25,"Cn1nccc1Nc1nccc(-c2cc3n4c(nnc4c2)[C@@H](CCC(F)(F)F)CCO3)n1 [(S) I-102, N-(1-methyl-1H-pyrazol-5-yl)-4-(9-(3,3,3-trifluoropropyl)-8,9-dihydro-7H-6-oxa-1,2,2a^1-triazabenzo[cd]azulen-4-yl)pyrimidin-2-amine]"
4,26,"CCC[C@H]1CCOc2cc(-c3ccnc(Nc4ccnn4C)c3)cc3nnc1n23 [(S) I-103, N-(1-methyl-1H-pyrazol-5-yl)-4-(9-propyl-8,9-dihydro-7H-6-oxa-1,2,2a^1-triazabenzo[cd]azulen-4-yl)pyridin-2-amine]"
5,< 20,"CCC[C@H]1CCOc2cc(-c3ccnc(Nc4ccnn4C)n3)cc3nnc1n23 [(S) I-104, N-(1-methyl-1H-pyrazol-5-yl)-4-(9-propyl-8,9-dihydro-7H-6-oxa-1,2,2a^1-triazabenzo[cd]azulen-4-yl)pyrimidin-2-amine]"
6,23,"CC(C)C[C@H]1CCOc2cc(-c3ccnc(Nc4ccnn4C)n3)cc3nnc1n23 [(S) I-107, 4-(9-isobutyl-8,9-dihydro-7H-6-oxa-1,2,2a^1-triazabenzo[cd]azulen-4-yl)-N-(1-methyl-1H-pyrazol-5-yl)pyrimidin-2-amine]"
7,< 20,"Cn1nccc1Nc1nccc(-c2cc3n4c(nnc4c2)[C@@H](Oc2ccc(F)cc2)CCO3)n1 [(S) I-108, 4-(9-(4-fluorophenoxy)-8,9-dihydro-7H-6-oxa-1,2,2a^1-triazabenzo[cd]azulen-4-yl)-N-(1-methyl-1H-pyrazol-5-yl)pyrimidin-2-amine]"
8,140,"Clc1cnn(C[C@@H]2CCOc3cc(-c4ccnc(NC5CCOCC5)n4)cc4nnc2n34)c1 [(S) I-110, 4-(9-((4-chloro-1H-pyrazol-1-yl)methyl)-8,9-dihydro-7H-6-oxa-1,2,2a^1-triazabenzo[cd]azulen-4-yl)-N-(tetrahydro-2H-pyran-4-yl)pyrimidin-2-amine]"
9,< 20,"Cn1nccc1Nc1nccc(-c2cc3n4c(nnc4c2)[C@@H](Oc2ccc(F)c(F)c2)CCO3)n1 [(S) I-111, 4-(9-(3,4-difluorophenoxy)-8,9-dihydro-7H-6-oxa-1,2,2a^1-triazabenzo[cd]azulen-4-yl)-N-(1-methyl-1H-pyrazol-5-yl)pyrimidin-2-amine]"
10,39,"CC(C)[C@H]1CNc2cc(-c3ccnc(Nc4ccnn4C)n3)cc3nnc1n23 [Compound I-3, S-4-(3-isopropyl-4,5-dihydro-3H-1,2,2a^1,5-tetraazaacenaphthylen-7-yl)-N-(1-methyl-1H-pyrazol-5-yl)pyrimidin-2-amine]"
11,23,"CN1C(=O)N[C@H](Cc2ccc(Cl)cc2)c2nnc3cc(-c4ccnc(Nc5ccnn5C)n4)cc1n23 [Compound I-6, (R)-9-(4-chlorobenzyl)-6-methyl-4-(2-((1-methyl-1H-pyrazol-5-yl)amino)pyrimidin-4-yl)-8,9-dihydro-1,2,2a^1,6,8-pentaazabenzo[cd]azulen-7(6H)-one]"
12,1150,"CC(C)C[C@@H]1c2nnc3cc(-c4ccnc(Nc5ccnn5C)n4)cc(n23)N(C)C(=O)N1C [Compound I-19, (R)-9-isobutyl-6,8-dimethyl-4-(2-((1-methyl-1H-pyrazol-5-yl)amino)pyrimidin-4-yl)-8,9-dihydro-1,2,2a^1,6,8-pentaazabenzo[cd]azulen-7(6H)-one]"
13,1120,"CC(C)C[C@@H]1c2nnc3cc(-c4ccnc(Nc5ccnn5C)n4)cc(n23)NC(=O)N1C [Compound I-23, (R)-9-isobutyl-8-methyl-4-(2-((1-methyl-1H-pyrazol-5-yl)amino)pyrimidin-4-yl)-8,9-dihydro-1,2,2a^1,6,8-pentaazabenzo[cd]azulen-7(6H)-one]"
14,4280,"CC(C)C[C@H]1NC(=O)N(C)c2cc(-c3ccnc(Nc4ccnn4C)c3)cc3nnc1n23 [Compound I-25, (R)-9-isobutyl-6-methyl-4-(2-((1-methyl-1H-pyrazol-5-yl)amino)pyridin-4-yl)-8,9-dihydro-1,2,2a^1,6,8-pentaazabenzo[cd]azulen-7(6H)-one]"
15,390,"COc1ccc(C[C@H]2NC(=O)N(C)c3cc(-c4ccnc(Nc5ccnn5C)c4)cc4nnc2n34)cc1 [Compound I-26, (R)-9-(4-methoxybenzyl)-6-methyl-4-(2-((1-methyl-1H-pyrazol-5-yl)amino)pyridin-4-yl)-8,9-dihydro-1,2,2a^1,6,8-pentaazabenzo[cd]azulen-7(6H)-one]"
16,20,"CN1C(=O)N(Cc2ccccc2)c2nnc3cc(-c4ccnc(Nc5ccnn5C)n4)cc1n23 [Compound I-28, 3-benzyl-5-methyl-7-(2-((1-methyl-1H-pyrazol-5-yl)amino)pyrimidin-4-yl)-3H-1,2,2a^1,3,5-pentaazaacenaphthylen-4(5H)-one]"
17,215,"CN1C(=O)N[C@H](Cc2cccc(F)c2)c2nnc3cc(-c4ccnc(Nc5ccnn5C)n4)cc1n23 [Compound I-39, (R)-9-(3-fluorobenzyl)-6-methyl-4-(2-((1-methyl-1H-pyrazol-5-yl)amino)pyrimidin-4-yl)-8,9-dihydro-1,2,2a^1,6,8-pentaazabenzo[cd]azulen-7(6H)-one]"
18,2340,"CN1C(=O)N[C@H](CC2CC2)c2nnc3cc(-c4ccnc(Nc5ccnn5C)n4)cc1n23 [Compound I-51, (R)-9-(cyclopropylmethyl)-6-methyl-4-(2-((1-methyl-1H-pyrazol-5-yl)amino)pyrimidin-4-yl)-8,9-dihydro-1,2,2a^1,6,8-pentaazabenzo[cd]azulen-7(6H)-one]"
19,< 20,"Cn1nccc1Nc1nccc(-c2cc3n4c(nnc4c2)C(Cn2cc(C(F)(F)F)cn2)CCO3)n1 (centres unmarked) [Compound I-73, N-(1-methyl-1H-pyrazol-5-yl)-4-(9-((4-(trifluoromethyl)-1H-pyrazol-1-yl)methyl)-8,9-dihydro-7H-6-oxa-1,2,2a^1-triazabenzo[cd]azulen-4-yl)pyrimidin-2-amine]"
20,17000,"CN1C(=O)CC(Cc2ccc(F)cc2)c2nnc3cc(-c4ccnc(Nc5ccnn5C)n4)cc1n23 (centres unmarked) [Compound I-79, 9-(4-fluorobenzyl)-6-methyl-4-(2-((1-methyl-1H-pyrazol-5-yl)amino)pyrimidin-4-yl)-8,9-dihydro-1,2,2a^1,6-tetraazabenzo[cd]azulen-7(6H)-one]"
21,< 20,"CN1C(=O)C[C@H](Cc2cccc(Cl)c2)c2nnc3cc(-c4ccnc(Nc5ccnn5C)n4)cc1n23 [Compound I-80, (S)-9-(3-chlorobenzyl)-6-methyl-4-(2-((1-methyl-1H-pyrazol-5-yl)amino)pyrimidin-4-yl)-8,9-dihydro-1,2,2a^1,6-tetraazabenzo[cd]azulen-7(6H)-one]"
22,< 20,"COc1cccc(CC2COc3cc(-c4ccnc(Nc5ccnn5C)n4)cc4nnc2n34)c1 (centres unmarked) [Compound I-81, 4-(3-(3-methoxybenzyl)-3,4-dihydro-5-oxa-1,2,2a^1-triazaacenaphthylen-7-yl)-N-(1-methyl-1H-pyrazol-5-yl)pyrimidin-2-amine]"
23,111,"Cn1nccc1Nc1cc(-c2cc3n4c(nnc4c2)C(Cc2ccc(F)c(Cl)c2)CO3)ccn1 (centres unmarked) [Compound I-83, 4-(3-(3-Chloro-4-fluorobenzyl)-3,4-dihydro-5-oxa-1,2,2a^1-triazaacenaphthylen-7-yl)-N-(1-methyl-1H-pyrazol-5-yl)pyridin-2-amine]"
24,598000,"CN1C(=O)C[C@@H](Cc2ccc(Cl)cn2)c2nnc3cc(-c4ccnc(Nc5ccnn5C)c4)cc1n23 [Compound I-94, (R)-9-((5-chloropyridin-2-yl)methyl)-6-methyl-4-(2-((1-methyl-1H-pyrazol-5-yl)amino)pyridin-4-yl)-8,9-dihydro-1,2,2a^1,6-tetraazabenzo[cd]azulen-7(6H)-one]"
25,751,"Cn1nccc1Nc1nccc(-c2cc3n4c(nnc4c2)C(C2CC2)CO3)n1 (centres unmarked) [Compound I-95, 4-(3-cyclopropyl-3,4-dihydro-5-oxa-1,2,2a^1-triazaacenaphthylen-7-yl)-N-(1-methyl-1H-pyrazol-5-yl)pyrimidin-2-amine]"
26,149,"Cn1nccc1Nc1cc(-c2cc3n4c(nnc4c2)C(Cc2cccc(Cl)c2)CO3)ccn1 (centres unmarked) [Compound I-96, 4-(3-(3-chlorobenzyl)-3,4-dihydro-5-oxa-1,2,2a^1-triazaacenaphthylen-7-yl)-N-(1-methyl-1H-pyrazol-5-yl)pyridin-2-amine]"
27,273,"CN1C(=O)N(Cc2ccc(Cl)cc2)c2nnc3cc(-c4ccnc(Nc5ccnn5C)n4)cc1n23 [Compound I-98, 3-(4-chlorobenzyl)-5-methyl-7-(2-((1-methyl-1H-pyrazol-5-yl)amino)pyrimidin-4-yl)-3H-1,2,2a^1,3,5-pentaazaacenaphthylen-4(5H)-one]"
28,113,"CN1C(=O)N(Cc2cc(F)cc(F)c2)c2nnc3cc(-c4ccnc(Nc5ccnn5C)n4)cc1n23 [Compound I-99, 3-(3,5-difluorobenzyl)-5-methyl-7-(2-((1-methyl-1H-pyrazol-5-yl)amino)pyrimidin-4-yl)-3H-1,2,2a^1,3,5-pentaazaacenaphthylen-4(5H)-one]"
29,< 20,"CN1C(=O)N(Cc2cccc(Cl)c2)c2nnc3cc(-c4ccnc(Nc5ccnn5C)n4)cc1n23 [Compound I-100, 3-(3-chlorobenzyl)-5-methyl-7-(2-((1-methyl-1H-pyrazol-5-yl)amino)pyrimidin-4-yl)-3H-1,2,2a^1,3,5-pentaazaacenaphthylen-4(5H)-one]"
